Patent US11051515B2, “3-acyl-benzamides and their use as herbicides” (Bayer Aktiengesellschaft, priority 2017, dated 2021)

Key:
AVEFA [1] = experiment: Pre-emergence action against AVEFA; format: in vivo, Avena fatua; conditions: dosage 320 g/ha, scored visually after 3 weeks vs untreated controls
In short: (§1)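 Seeds sown in sandy loam in wood-fiber pots and covered with soil. Greenhouse growth; visual damage scored after 3 weeks versus untreated controls (100% = dead, 0% = like control).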

VERPE [2] = experiment: Pre-emergence action against VERPE; format: in vivo, Veronica persica; conditions: Dosage 320 g/ha, pre-emergence
In short: as §1

MATIN [3] = experiment: Pre-emergence action against MATIN; format: in vivo, Matricaria inodora; conditions: Dosage 320 g/ha, pre-emergence
In short: as §1

ALOMY [4] = experiment: Pre-emergence action against ALOMY; format: in vivo, Alopecurus myosuroides; conditions: dosage 320 g/ha, pre-emergence, scored visually after 3 weeks vs untreated controls, 100% = plants have died, 0% = like control plants
In short: as §1

PHBPU [5] = experiment: Pre-emergence action against PHBPU; format: in vivo, Pharbitis purpurea; conditions: Dosage 320 g/ha, pre-emergence
In short: as §1

LOLMU [6] = experiment: Pre-emergence action against LOLMU; format: in vivo, Lolium multiflorum; conditions: dosage 320 g/ha, scored visually after 3 weeks vs untreated controls
In short: as §1

SETVI [7] = experiment: Post-emergence action against SETVI; format: in vivo, Setaria viridis; conditions: post-emergence, dosage 80 g/ha, visual assessment about 3 weeks after treatment vs untreated controls
In short: (§2)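 Weeds grown in sandy loam in greenhouse, treated at one-leaf stage (2–3 weeks after sowing) with WP or EC formulations sprayed as aqueous suspension/emulsion at 600 to […] water with 0.2% wetting agent. Visual rating after about 3 weeks versus untreated controls, as % herbicidal action (100% = plants dead, 0% = like control).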

MATIN [8] = experiment: Post-emergence action against MATIN; format: in vivo, Matricaria inodora; conditions: post-emergence, dosage 80 g/ha, visual assessment about 3 weeks after treatment vs untreated controls
In short: as §2

SETVI [9] = experiment: Pre-emergence action against SETVI; format: in vivo, Setaria viridis; conditions: pre-emergence, dosage 320 g/ha, scored visually after 3 weeks vs untreated controls
In short: as §1

POLCO [10] = experiment: Post-emergence action against POLCO; format: in vivo, Polygonum convolvulus; conditions: post-emergence, dosage 80 g/ha
In short: as §2

VIOTR [11] = experiment: Pre-emergence action against VIOTR; format: in vivo, Viola tricolor; conditions: Dosage 320 g/ha, pre-emergence
In short: as §1

ABUTH [12] = experiment: Post-emergence action against ABUTH; format: in vivo, Abutilon theophrasti; conditions: post-emergence, dosage 80 g/ha, visual assessment about 3 weeks after treatment vs untreated controls
In short: as §2

ALOMY [13] = experiment: Post-emergence action against ALOMY; format: in vivo, Alopecurus myosuroides; conditions: Dosage 80 g/ha, post-emergence
In short: as §2

AVEFA [14] = experiment: Post-emergence action against AVEFA; format: in vivo, Avena fatua; conditions: post-emergence, dosage 80 g/ha, visual assessment about 3 weeks after treatment vs untreated controls
In short: as §2

AMARE [15] = experiment: Pre-emergence action against AMARE; format: in vivo, Amaranthus retroflexus; conditions: pre-emergence, dosage 320 g/ha, scored visually after 3 weeks vs untreated controls
In short: as §1

VERPE [16] = experiment: Post-emergence action against VERPE; format: in vivo, Veronica persica; conditions: dosage 80 g/ha
In short: as §2

ECHCG [17] = experiment: Post-emergence action against ECHCG; format: in vivo, Echinochloa crus-galli; conditions: post-emergence, dosage 80 g/ha, visual assessment about 3 weeks after treatment vs untreated controls
In short: as §2

LOLMU [18] = experiment: Post-emergence action against LOLMU; format: in vivo, Lolium multiflorum; conditions: dosage 80 g/ha, visual assessment about 3 weeks after treatment vs untreated controls
Protocol: Seeds of monocotyledonous and dicotyledonous weed and crop plants are laid out in sandy loam soil in wood-fiber pots, covered with soil and cultivated in a greenhouse under good growth conditions. 2 to 3 weeks after sowing, the test plants are treated at the one-leaf stage. The compounds of the invention, formulated in the form of wettable powders (WP) or as emulsion concentrates (EC), are then sprayed onto the green parts of the plants in the form of an aqueous suspension or emulsion at a water application rate equating to […], with addition of 0.2% wetting agent. After the test plants have been left to stand in the greenhouse under optimal growth conditions for about 3 weeks, the action of the preparations is assessed visually in comparison to untreated controls (herbicidal action in percent (%): 100% activity=the plants have died, 0% activity=like control plants). […] At the same time, inventive compounds leave Gramineae crops such as barley, wheat, rye, millet/Sorghum, corn or rice virtually undamaged when applied post-emergence, even at high active ingredient dosages. In addition, some substances are also harmless to dicotyledonous crops such as soya, cotton, oilseed rape, sugar beet or potatoes. Some of the compounds according to the invention have high selectivity and are therefore suitable for controlling unwanted vegetation in agricultural crops by the post-emergence method. The data of Tables B18 to B34 below illustrate, in an exemplary manner, the […] herbicidal action of the compounds according to the invention, the herbicidal activity being stated in percent.

CYPES = experiment: Pre-emergence action against CYPES; format: in vivo, Cyperus esculentus; conditions: pre-emergence, dosage 320 g/ha, scored visually after 3 weeks vs untreated controls
In short: as §1

STEME [19] = experiment: Pre-emergence action against STEME; format: in vivo, Stellaria media; conditions: Dosage 320 g/ha, pre-emergence
In short: as §1

VIOTR [20] = experiment: Post-emergence action against VIOTR; format: in vivo, Viola tricolor; conditions: post-emergence, dosage 80 g/ha
In short: as §2

AMARE [21] = experiment: Post-emergence action against AMARE; format: in vivo, Amaranthus retroflexus; conditions: post-emergence, dosage 80 g/ha, visual assessment about 3 weeks after treatment vs untreated controls
In short: as §2

PHBPU [22] = experiment: Post-emergence action against PHBPU; format: in vivo, Pharbitis purpurea; conditions: post-emergence, dosage 80 g/ha
In short: as §2

ABUTH [23] = experiment: Pre-emergence action against ABUTH; format: in vivo, Abutilon theophrasti; conditions: pre-emergence, dosage 320 g/ha, scored visually after 3 weeks vs untreated controls
In short: as §1

ECHCG [24] = experiment: Pre-emergence action against ECHCG; format: in vivo, Echinochloa crus-galli; conditions: pre-emergence, dosage 320 g/ha, scored visually after 3 weeks vs untreated controls
In short: as §1

POLCO [25] = experiment: Pre-emergence action against POLCO; format: in vivo, Polygonum convolvulus; conditions: Fallopia convolvulus, 504 h; Dosage 320 g/ha, pre-emergence
In short: as §1

STEME [26] = experiment: Post-emergence action against STEME; format: in vivo, Stellaria media; conditions: Stellaria media, 504 h; post-emergence, dosage 80 g/ha
In short: as §2

CCn1nnnc1NC(=O)c1ccc(C(F)(F)F)c(C(=O)C2CC2)c1Cl [2-141]
Pre-emergence action against AVEFA (herbicidal activity) (AVEFA [1]): 100%
Pre-emergence action against VERPE (VERPE [2]): 100%
Pre-emergence action against MATIN (MATIN [3]): 100%
Pre-emergence action against ALOMY (herbicidal activity in percent) (ALOMY [4]): 100%
Pre-emergence action against PHBPU (PHBPU [5]): 80%
Pre-emergence action against LOLMU (herbicidal activity) (LOLMU [6]): 100%
Post-emergence action against SETVI (herbicidal action in percent) (SETVI [7]): 90%
Post-emergence action against MATIN (herbicidal action in percent) (MATIN [8]): 80%
SETVI (Table B8, pre-emergence herbicidal activity) (SETVI [9]): 100%
Post-emergence action against POLCO (POLCO [10]): 90
Pre-emergence action against VIOTR (VIOTR [11]): 100%
Post-emergence action against ABUTH (herbicidal action in percent) (ABUTH [12]): 90%
Post-emergence action against ALOMY (ALOMY [13]): 90%
Post-emergence action against AVEFA (herbicidal action in percent) (AVEFA [14]): 90%
Pre-emergence action against AMARE (herbicidal activity) (AMARE [15]): 100%
Post-emergence action against VERPE (VERPE [16]): 80
Post-emergence action against ECHCG (herbicidal action in percent) (ECHCG [17]): 90%
Post-emergence action against LOLMU (herbicidal action in percent) (LOLMU [18]): 90%
Pre-emergence action against CYPES (herbicidal activity) (CYPES): 90%
Pre-emergence action against STEME (STEME [19]): 90%
Post-emergence action against VIOTR (VIOTR [20]): 100
Post-emergence action against AMARE (herbicidal action in percent) (AMARE [21]): 90%
Post-emergence action against PHBPU (PHBPU [22]): 90
Pre-emergence action against ABUTH (herbicidal activity) (ABUTH [23]): 100%
Pre-emergence action against ECHCG (herbicidal activity) (ECHCG [24]): 100%

CSc1ccc(C(=O)Nc2nnnn2C)c(Cl)c1C(C)=O [1-121]
pest or weed control at 320 g/ha (AVEFA [1]; Avena fatua, 504 h, read-out: Pre-emergence action against AVEFA (herbicidal activity)): 90%
pest or weed control at 320 g/ha (VERPE [2]; Veronica persica, 504 h): 100%
pest or weed control at 320 g/ha (MATIN [3]; Tripleurospermum inodorum, 504 h): 100%
pest or weed control at 320 g/ha (ALOMY [4]; Alopecurus myosuroides, 504 h, read-out: Pre-emergence action against ALOMY (herbicidal activity in percent)): 90%
pest or weed control at 320 g/ha (LOLMU [6]; Lolium multiflorum, 504 h, read-out: Pre-emergence action against LOLMU (herbicidal activity)): 90%
pest or weed control at 80 g/ha (SETVI [7]; Setaria viridis, 504 h, read-out: Post-emergence action against SETVI (herbicidal action in percent)): 90%
pest or weed control at 80 g/ha (MATIN [8]; Tripleurospermum inodorum, 504 h, read-out: Post-emergence action against MATIN (herbicidal action in percent)): 100%
pest or weed control at 320 g/ha (SETVI [9]; Setaria viridis, 504 h, read-out: SETVI (Table B8, pre-emergence herbicidal activity)): 100%
pest or weed control at 80 g/ha (POLCO [10]; Fallopia convolvulus, 504 h): 80%
pest or weed control at 320 g/ha (VIOTR [11]; Viola tricolor, 504 h): 100%
pest or weed control at 320 g/ha (POLCO [25]): 90%
pest or weed control at 80 g/ha (ABUTH [12]; Abutilon theophrasti, 504 h, read-out: Post-emergence action against ABUTH (herbicidal action in percent)): 90%
pest or weed control at 80 g/ha (ALOMY [13]; Alopecurus myosuroides, 504 h): 90%
pest or weed control at 80 g/ha (AVEFA [14]; Avena fatua, 504 h, read-out: Post-emergence action against AVEFA (herbicidal action in percent)): 90%
pest or weed control at 320 g/ha (AMARE [15]; Amaranthus retroflexus, 504 h, read-out: Pre-emergence action against AMARE (herbicidal activity)): 100%
pest or weed control at 80 g/ha (VERPE [16]; Veronica persica, 504 h): 100%
pest or weed control at 80 g/ha (ECHCG [17]; Echinochloa crus-galli, 504 h, read-out: Post-emergence action against ECHCG (herbicidal action in percent)): 90%
pest or weed control at 80 g/ha (LOLMU [18]; Lolium multiflorum, 504 h, read-out: Post-emergence action against LOLMU (herbicidal action in percent)): 90%
pest or weed control at 320 g/ha (CYPES; Cyperus esculentus, 504 h, read-out: Pre-emergence action against CYPES (herbicidal activity)): 90%
pest or weed control at 320 g/ha (STEME [19]; Stellaria media, 504 h): 90%
pest or weed control at 80 g/ha (STEME [26]): 100%
pest or weed control at 80 g/ha (VIOTR [20]; Viola tricolor, 504 h): 90%
pest or weed control at 80 g/ha (AMARE [21]; Amaranthus retroflexus, 504 h, read-out: Post-emergence action against AMARE (herbicidal action in percent)): 90%
pest or weed control at 80 g/ha (PHBPU [22]; Ipomoea purpurea, 504 h): 90%
pest or weed control at 320 g/ha (ABUTH [23]; Abutilon theophrasti, 504 h, read-out: Pre-emergence action against ABUTH (herbicidal activity)): 90%
pest or weed control at 320 g/ha (ECHCG [24]; Echinochloa crus-galli, 504 h, read-out: Pre-emergence action against ECHCG (herbicidal activity)): 100%
